This note sets out measurements from patent US20110092476A1, “Bicycloheteroaryl compounds as P2X7 modulators and uses thereof” (Renovis, Inc., priority 2006, published 2011).

Each structure is given as a SMILES string.

For the first test, the target named is T1, P2X7 receptor (Homo sapiens, UniProt Q99572).
T1 construct: host or cells: THP-1 cells differentiated with LPS and IFN-γ
T1 sequence (Q99572 1-595): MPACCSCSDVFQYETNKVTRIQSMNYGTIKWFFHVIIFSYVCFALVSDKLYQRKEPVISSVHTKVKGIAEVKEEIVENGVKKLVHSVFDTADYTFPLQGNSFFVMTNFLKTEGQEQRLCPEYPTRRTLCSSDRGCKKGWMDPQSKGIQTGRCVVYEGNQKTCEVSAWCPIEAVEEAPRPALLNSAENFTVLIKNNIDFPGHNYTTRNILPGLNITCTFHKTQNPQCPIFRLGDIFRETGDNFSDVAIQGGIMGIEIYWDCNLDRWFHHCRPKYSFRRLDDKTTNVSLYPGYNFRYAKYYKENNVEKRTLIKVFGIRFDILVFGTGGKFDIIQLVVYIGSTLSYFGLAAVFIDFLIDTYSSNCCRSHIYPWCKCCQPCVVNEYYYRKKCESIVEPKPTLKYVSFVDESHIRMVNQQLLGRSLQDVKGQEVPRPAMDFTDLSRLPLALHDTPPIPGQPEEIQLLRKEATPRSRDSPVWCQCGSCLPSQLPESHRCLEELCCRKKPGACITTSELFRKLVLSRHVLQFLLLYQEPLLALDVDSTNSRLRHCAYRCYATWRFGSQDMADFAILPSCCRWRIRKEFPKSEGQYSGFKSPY
The experiment in a line: IL-1β release assay in differentiated THP-1 cells stimulated with BzATP (Example 9). As to conditions: 0.3 μM compound; differentiated THP-1 cells, BzATP 250 uM; "+" symbols; read-out: IL-1β % Inhib. @ 0.3 or 0.1 uM. It counts as cell-based. The procedure, abridged: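 THP-1 cells differentiated 16 h with 100 ng/mL LPS and 100 ng/mL IFN-γ, primed 2 h with fresh LPS, pretreated 30 min with compound, then stimulated 45 min with 250 uM BzATP (final). Supernatant IL-1β measured by ELISA; background-adjusted percent inhibition fitted to a four-parameter logistic for IC50.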
For the molecule `O=C(Cc1ccc(Cl)c(C(F)(F)F)c1)Nc1cccc2c(=O)n(CC3CCNCC3)ccc12` [Compound 257, 2-(4-Chloro-3-trifluoromethyl-phenyl)-N-(1-oxo-2-piperidin-4-ylmethyl-1,2-dihydro-isoquinolin-5-yl)-acetamide], the inhibition at 0.3 µM was more than 76%.

In the case of `NCC(CCl)Cn1ccc2c(NC(=O)Cc3ccc(Cl)c(C(F)(F)F)c3)cccc2c1=O` (stereo not drawn) [Compound 258, N-[2-(3-Amino-2-chloromethyl-propyl)-1-oxo-1,2-dihydro-isoquinolin-5-yl]-2-(4-chloro-3-trifluoromethyl-phenyl)-acetamide], the inhibition at 0.3 µM is more than 76%.

As for `NCC(CCl)Cn1ccc2c(NC(=O)Cc3ccc(Cl)c(Cl)c3)cccc2c1=O` (stereo not drawn) [Compound 259], the inhibition at 0.3 µM was 51 to 75%.

Regarding `C[C@H](C(N)=O)n1ccc2c(NC(=O)Cc3ccccc3Cl)cccc2c1=O` [Compound 260], the inhibition at 0.3 µM fell in the range of 0 to 25%.

For `CNC(=O)[C@@H](CO)n1ccc2c(NC(=O)C(C)c3ccc(Cl)cc3)cccc2c1=O` (stereo partly drawn) [Compound 261], the inhibition at 0.3 µM is 51 to 75%.

For `C[C@H](C(N)=O)n1ccc2c(NC(=O)C(C)(C)c3ccc(Cl)cc3)cccc2c1=O` [Compound 264], the inhibition at 0.3 µM was in the range of 26 to 50%.

As for `CNC(=O)[C@@H](CO)n1ccc2c(NC(=O)C(C)c3ccc(Cl)c(Cl)c3)cccc2c1=O` (stereo partly drawn) [Compound 270, (R)-2-{5-[2-(3,4-Dichloro-phenyl)-propionylamino]-1-oxo-1H-isoquinolin-2-yl}-3-hydroxy-N-methyl-propionamide], the inhibition at 0.3 µM was more than 76%.

`CC(C)C[C@H](CO)n1ccc2c(NC(=O)[C@@H](C)c3ccc(Cl)cc3)cccc2c1=O` [Compound 271]: the inhibition at 0.3 µM was more than 76%.

For `C[C@H](C(N)=O)n1ccc2c(NC(=O)c3cccc4ncccc34)cccc2c1=O` [Compound 272], the inhibition at 0.3 µM was 0 to 25%.

`CC(C)[C@H](CO)n1ccc2c(NC(=O)[C@H](C)c3ccc(Cl)cc3)cccc2c1=O` [Compound 273, (R)-2-(4-Chloro-phenyl)-N—[(R)-2-(1-hydroxymethyl-2-methyl-propyl)-1-oxo-1,2-dihydro-isoquinolin-5-yl]-propionamide]: the inhibition at 0.3 µM was more than 76%.

As for `CC(C)[C@H](CO)n1ccc2c(NC(=O)[C@@H](C)c3ccc(Cl)cc3)cccc2c1=O` [Compound 274], the inhibition at 0.3 µM is more than 76%.

In the case of `CC(C)C[C@H](CO)n1ccc2c(NC(=O)Cc3ccc(Cl)c(Cl)c3)cccc2c1=O` [Compound 275], the inhibition at 0.3 µM was more than 76%.

On to `CNC(=O)[C@@H](C(C)C)n1ccc2c(NC(=O)[C@@H](C)c3ccc(Cl)cc3)cccc2c1=O` [Compound 276, (R)-2-{5-[(S)-2-(4-Chloro-phenyl)-propionylamino]-1-oxo-1H-isoquinolin-2-yl}-3,N-dimethyl-butyramide], for which the inhibition at 0.3 µM was more than 76%.

As to `CNC(=O)[C@@H](C(C)C)n1ccc2c(NC(=O)[C@H](C)c3ccc(Cl)cc3)cccc2c1=O` [Compound 277], the inhibition at 0.3 µM is more than 76%.

Turning to `C[C@H](C(=O)Nc1cccc2c(=O)n([C@@H](C(N)=O)c3ccccc3)ccc12)c1ccc(Cl)c(Cl)c1` [Compound 278, (S)—N-[2-((R)-Carbamoyl-phenyl-methyl)-1-oxo-1,2-dihydro-isoquinolin-5-yl]-2-(3,4-dichloro-phenyl)-propionamide], the inhibition at 0.3 µM was more than 76%.

On to `C[C@H](C(=O)Nc1cccc2c(=O)n([C@@H](C(N)=O)c3ccccc3)ccc12)c1ccc(Cl)cc1` [Compound 279, (S)—N-[2-((R)-Carbamoyl-phenyl-methyl)-1-oxo-1,2-dihydro-isoquinolin-5-yl]-2-(4-chloro-phenyl)-propionamide], for which the inhibition at 0.3 µM was more than 76%.

Take `CC(C)C[C@H](CO)n1ccc2c(NC(=O)Cc3ccc(Cl)c(C(F)(F)F)c3)cccc2c1=O` [Compound 280]: the inhibition at 0.3 µM is more than 76%.

For `CC(C)[C@H](C(=O)NC1CC1)n1ccc2c(NC(=O)[C@@H](C)c3ccc(Cl)cc3)cccc2c1=O` [Compound 281, (R)-2-{5-[(S)-2-(4-Chloro-phenyl)-propionylamino]-1-oxo-1H-isoquinolin-2-yl}-N-cyclopropyl-3-methyl-butyramide], the inhibition at 0.3 µM is more than 76%.

Turning to `CC(C)[C@H](C(=O)NC1CC1)n1ccc2c(NC(=O)[C@H](C)c3ccc(Cl)cc3)cccc2c1=O` [Compound 282], the inhibition at 0.3 µM was more than 76%.

In the case of `C[C@H](C(N)=O)n1ccc2c(NC(=O)Cc3c(F)cccc3C(F)(F)F)cccc2c1=O` [Compound 286], the inhibition at 0.3 µM fell in the range of 26 to 50%.

Regarding `C[C@H](C(N)=O)n1ccc2c(NC(=O)Cc3ccc(C#N)cc3)cccc2c1=O` [Compound 287], the inhibition at 0.3 µM lay within 26 to 50%.

For `C[C@H](C(N)=O)n1ccc2c(NC(=O)Cc3cccc(C#N)c3)cccc2c1=O` [Compound 288], the inhibition at 0.3 µM lay in the range of 0 to 25%.

In the case of `C[C@H](C(N)=O)n1ccc2c(NC(=O)Cc3ccc(-c4ccccc4)cc3)cccc2c1=O` [Compound 289], the inhibition at 0.3 µM was more than 76%.

On to `C[C@H](C(N)=O)n1ccc2c(NC(=O)Cc3ccc(F)cc3Cl)cccc2c1=O` [Compound 291], for which the inhibition at 0.3 µM is more than 76%.

For `C[C@H](C(N)=O)n1ccc2c(NC(=O)Cc3c(F)cccc3F)cccc2c1=O` [Compound 292], the inhibition at 0.3 µM was 0 to 25%.

Regarding `C[C@H](C(N)=O)n1ccc2c(NC(=O)Cc3ccc(F)cc3F)cccc2c1=O` [Compound 293], the inhibition at 0.3 µM was more than 76%.

For the molecule `C[C@H](C(N)=O)n1ccc2c(NC(=O)Cc3ccccc3F)cccc2c1=O` [Compound 294], the inhibition at 0.3 µM was 26 to 50%.

`C[C@H](C(N)=O)n1ccc2c(NC(=O)Cc3ccc(F)cc3C(F)(F)F)cccc2c1=O` [Compound 295]: the inhibition at 0.3 µM lay within 51 to 75%.

`C[C@H](C(N)=O)n1ccc2c(NC(=O)Cc3ccc(C(F)(F)F)cc3F)cccc2c1=O` [Compound 296]: the inhibition at 0.3 µM is more than 76%.

Take `C[C@H](C(N)=O)n1ccc2c(NC(=O)Cc3cccc(C(F)(F)F)c3)cccc2c1=O` [Compound 297]: the inhibition at 0.3 µM was more than 76%.

`CC(C(=O)Nc1cccc2c(=O)n([C@H](C)C(N)=O)ccc12)c1ccc(F)cc1` (stereo partly drawn) [Compound 299]: the inhibition at 0.3 µM is more than 76%.

Take `Cc1ccc(CC(=O)Nc2cccc3c(=O)n([C@H](C)C(N)=O)ccc23)cc1F` [Compound 302]: the inhibition at 0.3 µM is more than 76%.

With `C[C@H](C(N)=O)n1ccc2c(NC(=O)Cc3ccc(F)c(F)c3)cccc2c1=O` [Compound 303], the inhibition at 0.3 µM is more than 76%.

For `C[C@H](C(N)=O)n1ccc2c(NC(=O)Cc3cc(F)c(F)cc3F)cccc2c1=O` [Compound 305], the inhibition at 0.3 µM was more than 76%.

On to `C[C@H](C(=O)Nc1cccc2c(=O)n([C@H](C)C(=O)NC3CC3)ccc12)c1ccc(Cl)cc1` [Compound 308, (R)-2-{5-[(S)-2-(4-Chloro-phenyl)-propionylamino]-1-oxo-1H-isoquinolin-2-yl}-N-cyclopropyl-propionamide], for which the inhibition at 0.3 µM fell in the range of 51 to 75%.

`C[C@H](C(N)=O)n1ccc2c(NC(=O)Cc3ccccn3)cccc2c1=O` [Compound 309]: the inhibition at 0.3 µM is 0 to 25%.

As for `C[C@@H](C(N)=O)n1ccc2c(NC(=O)Cc3ccc(Cl)nc3)cccc2c1=O` [Compound 310], the inhibition at 0.3 µM lay in the range of 0 to 25%.

For `C[C@H](C(N)=O)n1ccc2c(NC(=O)Cc3ccc(OC(F)(F)F)cc3)cccc2c1=O` [Compound 311], the inhibition at 0.3 µM is 51 to 75%.

Consider `C[C@H](C(N)=O)n1ccc2c(NC(=O)Cc3ccc(Cl)nc3)cccc2c1=O` [Compound 312], for which the inhibition at 0.3 µM fell in the range of 0 to 25%.

Consider `C[C@H](C(N)=O)n1ccc2c(NC(=O)Cc3cccc(OC(F)(F)F)c3)cccc2c1=O` [Compound 313], for which the inhibition at 0.3 µM lay in the range of 0 to 25%.

On to `C[C@H](C(N)=O)n1ccc2c(NC(=O)Cc3ccc(Cl)cc3Cl)cccc2c1=O` [Compound 314], for which the inhibition at 0.3 µM was more than 76%.

In the case of `C[C@H](C(=O)Nc1cccc2c(=O)n(C(C(N)=O)c3ccc(Cl)cc3)ccc12)c1ccc(Cl)cc1` (stereo partly drawn) [Compound 315, (S)—N-{2-[Carbamoyl-(4-chloro-phenyl)-methyl]-1-oxo-1,2-dihydro-isoquinolin-5-yl}-2-(4-chloro-phenyl)-propionamide], the inhibition at 0.3 µM lay in the range of 51 to 75%.

On to `C[C@@H](C(=O)Nc1cccc2c(=O)n([C@@H](C)CO)ccc12)c1ccc(Cl)c(Cl)c1` [Compound 317], for which the inhibition at 0.3 µM is more than 76%.

For `C[C@@H](CO)n1ccc2c(NC(=O)Cc3ccc(C(F)(F)F)cc3)cccc2c1=O` [Compound 318], the inhibition at 0.3 µM lay within 51 to 75%.

On to `C[C@H](C(=O)Nc1cccc2c(=O)n([C@H](C)CO)ccc12)c1ccc(Cl)c(Cl)c1` [Compound 321], for which the inhibition at 0.3 µM was more than 76%.

The same test, now with this note: THP-1 cells, BzATP 250 uM, IL-1β by ELISA.
On to `C[C@H](C(N)=O)n1ccc2c(NC(=O)C(C)(C)c3ccc(Cl)cc3)cccc2c1=O` [Compound 264], for which the 50% inhibitory concentration (IC50) came out at 443 nM.

As to `CC(C)[C@H](CO)n1ccc2c(NC(=O)[C@@H](C)c3ccc(Cl)cc3)cccc2c1=O` [Compound 274], the IC50 stood at 14.5 nM.

`C[C@H](C(N)=O)n1ccc2c(NC(=O)Cc3ccc(OC(F)(F)F)cc3)cccc2c1=O` [Compound 311] displayed an IC50 of 150 nM.

In general, IC50 refers to the concentration at which inhibition is half-maximal. A low value points to greater potency in that assay.
